In patent US20150105252A1, “SUBSTITUTED PYRAZOLES AS HERBICIDES” (E I DU PONT DE NEMOURS AND COMPANY, priority 2013, published 2015):

What was measured:
johnsongrass = test: Test C preemergence; assay type: in vivo, Sorghum halepense
How it was run: (§1)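 Visual rating, 0–100 scale (0 no effect, 100 complete control), vs untreated controls after 13–15 d greenhouse. Pre: seeds in loam/sand, treated at sowing. Post: plants in peat-based mix, 1- to 4-leaf (2–18 cm). Solvent + surfactant formulation, non-phytotoxic.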

pigweed = test: Test A postemergence; assay type: in vivo, Amaranthus retroflexus; conditions: Postemergence
How it was run: (§2)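 Ratings express plant response from 0 (no effect) to 100 (complete control), judged visually against untreated controls after approximately 10 days in the greenhouse. Preemergence applications were made as directed soil sprays onto seeded loam–sand mix, and postemergence applications onto 2–10 cm plants at one- to two-leaf stage.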

kochia = test: Test C postemergence; assay type: in vivo, Kochia scoparia
How it was run: as §1

ryegrass, Italian = test: Test C preemergence; assay type: in vivo, Lolium multiflorum
How it was run: as §1

crabgrass, large [1] = test: Test C preemergence; assay type: in vivo, Digitaria sanguinalis
How it was run: as §1

crabgrass, large [2] = test: Test A preemergence; assay type: in vivo, Digitaria sanguinalis; conditions: preemergence
How it was run: as §2

foxtail, giant = test: Test C preemergence; assay type: in vivo, Setaria faberii
How it was run: as §1

barnyardgrass [3] = test: Test C postemergence; assay type: in vivo, Echinochloa crus-galli
How it was run: as §1

barnyardgrass [4] = test: Test A postemergence; assay type: in vivo, Echinochloa crus-galli; conditions: Postemergence
How it was run: as §2

waterhemp = test: Test C preemergence; assay type: in vivo, Amaranthus rudis
How it was run: as §1

chickweed = test: Test C postemergence; assay type: in vivo, Stellaria media
How it was run: as §1

velvetleaf = test: Test C preemergence; assay type: in vivo, Abutilon theophrasti
How it was run: as §1

crabgrass, large [5] = test: Test C postemergence; assay type: in vivo, Digitaria sanguinalis
How it was run: as §1

morningglory = test: Test A preemergence; assay type: in vivo, Ipomoea spp.; conditions: preemergence, 125 g ai/ha, visual injury approx. 10 days after treatment
How it was run: as §2

[6] = Preemergence, rate head not shown (block before 16 g ai/ha), scale 0 to 100
[7] = preemergence, 62 g ai/ha, scale 0 to 100 (0 no effect, 100 complete control), 13 to 15 days
[8] = preemergence, 125 g ai/ha, 13 to 15 days, scale 0 to 100, 0 = no effect, 100 = complete control
[9] = preemergence, 250 g ai/ha, scale 0 to 100, 0 is no effect, 100 is complete control
[10] = 125 g ai/ha, 0 to 100 scale, 0 no effect, 100 complete control
[11] = 500 g ai/ha, 0 to 100 scale (0 no effect, 100 complete control)
[12] = Postemergence, 31 g ai/ha, visually evaluated after 13 to 15 days
[13] = postemergence, 62 g ai/ha, scale 0 to 100
[14] = postemergence, 250 g ai/ha, scale 0 to 100 (0 no effect, 100 complete control)
[15] = postemergence, 125 g ai/ha, scale 0 to 100, 0 no effect, 100 complete control

SMILES: CCc1cc(C(=O)NCC(F)(F)F)nn1Cc1ccnc(Br)c1 [Compound 224]
- Plant response rating, Johnsongrass (johnsongrass; [6]): 15
- Johnsongrass plant response rating (johnsongrass; [7]): 50
- Plant response rating, Johnsongrass (johnsongrass; [8]): 60
- Johnsongrass plant response rating (johnsongrass; [9]): 98
- Pigweed plant response rating (pigweed; [10]): 100
- Pigweed plant response rating (pigweed; [11]): 100
- Plant response rating (scale of 0 to 100 where 0 is no effect and 100 is complete control), Kochia (kochia; [12]): 80
- Kochia plant response rating (kochia; [13]): 85
- Plant response rating, Kochia (kochia; [14]): 90
- Plant response rating, Kochia (kochia; [15]): 90
- Plant response rating, Ryegrass, Italian (ryegrass, Italian; [6]): 10
- Ryegrass, Italian plant response rating (ryegrass, Italian; [7]): 60
- Plant response rating, Ryegrass, Italian (ryegrass, Italian; [8]): 50
- Ryegrass, Italian plant response rating (ryegrass, Italian; [9]): 30
- Plant response rating, Crabgrass, Large (crabgrass, large [1]; [6]): 100
- Crabgrass, Large plant response rating (crabgrass, large [1]; [7]): 100
- Plant response rating, Crabgrass, Large (crabgrass, large [1]; [8]): 100
- Crabgrass, Large plant response rating (crabgrass, large [1]; [9]): 100
- Crabgrass, Large plant response rating (0 to 100 scale) (crabgrass, large [2]; 125 g ai/ha, visual injury approx. 10 days after treatment): 100
- Crabgrass, Large plant response rating (crabgrass, large [2]; 500 g ai/ha, visual injury after approx. 10 days, 0 to 100 scale (0 no effect, 100 complete control)): 100
- Plant response rating, Foxtail, Giant (foxtail, giant; [6]): 95
- Foxtail, Giant plant response rating (foxtail, giant; [7]): 100
- Plant response rating, Foxtail, Giant (foxtail, giant; [8]): 100
- Foxtail, Giant plant response rating (foxtail, giant; [9]): 100
- Plant response rating (scale of 0 to 100 where 0 is no effect and 100 is complete control), Barnyardgrass (barnyardgrass [3]; [12]): 0
- Barnyardgrass plant response rating (barnyardgrass [3]; [13]): 10
- Plant response rating, Barnyardgrass (barnyardgrass [3]; [14]): 10
- Plant response rating, Barnyardgrass (barnyardgrass [3]; [15]): 10
- Barnyardgrass plant response rating (barnyardgrass [4]; [10]): 90
- Barnyardgrass plant response rating (barnyardgrass [4]; [11]): 100
- Plant response rating, Waterhemp (waterhemp; [6]): 100
- Waterhemp plant response rating (waterhemp; [7]): 100
- Plant response rating, Waterhemp (waterhemp; [8]): 100
- Waterhemp plant response rating (waterhemp; [9]): 100
- Plant response rating (scale of 0 to 100 where 0 is no effect and 100 is complete control), Chickweed (chickweed; [12]): 50
- Chickweed plant response rating (chickweed; [13]): 55
- Plant response rating, Chickweed (chickweed; [14]): 90
- Plant response rating, Chickweed (chickweed; [15]): 55
- Plant response rating, Velvetleaf (velvetleaf; [6]): 40
- Velvetleaf plant response rating (velvetleaf; [7]): 65
- Plant response rating, Velvetleaf (velvetleaf; [8]): 100
- Velvetleaf plant response rating (velvetleaf; [9]): 100
- Plant response rating (scale of 0 to 100 where 0 is no effect and 100 is complete control), Crabgrass, Large (crabgrass, large [5]; [12]): 5
- Crabgrass, Large plant response rating (crabgrass, large [5]; [13]): 5
- Plant response rating, Crabgrass, Large (crabgrass, large [5]; [14]): 20
- Plant response rating, Crabgrass, Large (crabgrass, large [5]; [15]): 5
- Morningglory plant response rating (0 to 100 scale) (morningglory): 30
